# From PMC4335062, “Data-Driven Prediction and Design of bZIP Coiled-Coil Interactions” (PLoS Computational Biology, 2015)
# Like-named read-outs stand apart in the source and are kept apart here. Where no end group is shown, it is not given here.
# What was measured:
# Assay in all cases: Direct-binding FRET assay
# [1] = molecular target: FOS (Homo sapiens, UniProt P01100); parameters: made in house; details: read-out: Kd
# Description: (§1) The direct binding assay was performed manually in 384-well plates and is similar to a previously described assay. Wells were filled with 20 μL of 1 mM TCEP-HCl. A 4 μM stock of acceptor protein was made fresh in 1 mM TCEP-HCl, and 20 μL was titrated in 2-fold dilutions over the wells. […] The direct-binding FRET data were fit as previously described. Briefly, the Kd of the designed peptide homodimer was experimentally determined and used with previously determined target homodimer Kd values to determine the heterodimer Kd. The homodimer Kd values used for the human bZIPs were from; experiments done by […] et al. used the same protein constructs for the human bZIP proteins, the same buffer conditions, and the same assay. The fitting used a system of ordinary differential equations to describe the concentrations of homo and heterodimers formed by the donor (D) and acceptor (A) as a function of the heterodimer Kd. MATLAB was used to simulate the binding experiment for different Kd values, and the value that gave the best agreement between simulation and experiment was assigned. A minimum 15% change in the donor fluorescence upon titrating the acceptor peptide from 0 to 1000 nM was required for a fit to be attempted. If this minimum was not met, the interaction was classified as “NS” for no signal change. […] For such curves, we removed the first five points and re-fit the data.
# [2] = molecular target: MAFG (Homo sapiens, UniProt O15525); parameters: made in house; details: read-out: Kd
# Sequence of MAFG (O15525 51-114 limits assumed): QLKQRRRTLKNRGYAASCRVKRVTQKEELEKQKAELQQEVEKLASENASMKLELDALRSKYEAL
# Description: as §1
# [3] = molecular target: ATF6B (Homo sapiens, UniProt Q99941); parameters: made in house; details: read-out: Kd
# Sequence of ATF6B (Q99941 325-388 limits assumed): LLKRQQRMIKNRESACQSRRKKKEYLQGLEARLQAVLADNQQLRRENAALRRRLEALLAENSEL
# Description: as §1
# [4] = molecular target: JUN (Homo sapiens, UniProt P05412); parameters: made in house; details: read-out: Kd
# Description: as §1
# [5] = molecular target: T1, NFIL3 (Homo sapiens, UniProt Q16649); details: read-out: Kd
# T1 construct: made in house
# T1 sequence (Q16649 73-136 limits assumed): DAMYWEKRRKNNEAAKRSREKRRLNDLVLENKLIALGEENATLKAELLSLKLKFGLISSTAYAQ
# Description: (§2) The direct binding assay was performed manually in 384-well plates and is similar to a previously described assay. Wells were filled with 20 μL of 1 mM TCEP-HCl. A 4 μM stock of acceptor protein was made fresh in 1 mM TCEP-HCl, and 20 μL was titrated in 2-fold dilutions over the wells. […] The direct-binding FRET data were fit as previously described. Briefly, the Kd of the designed peptide homodimer was experimentally determined and used with previously determined target homodimer Kd values to determine the heterodimer Kd. The homodimer Kd values used for the human bZIPs were from; experiments done by […] et al. used the same protein constructs for the human bZIP proteins, the same buffer conditions, and the same assay. The fitting used a system of ordinary differential equations to describe the concentrations of homo and heterodimers formed by the donor (D) and acceptor (A) as a function of the heterodimer Kd. MATLAB was used to simulate the binding experiment for different Kd values, and the value that gave the best agreement between simulation and experiment was assigned. A minimum 15% change in the donor fluorescence upon titrating the acceptor peptide from 0 to 1000 nM was required for a fit to be attempted. If this minimum was not met, the interaction was classified as “NS” for no signal change. […] These interactions were marked “AS” to indicate anomalous signal. We attributed this to interactions between the peptides, the dyes and the walls of the assay plates at low concentrations. These curves could not be fit, given their unusual shapes at low concentrations of acceptor. For such curves, we removed the first five points and re-fit the data. […] One example of this is increasing concentrations of acceptor causing an increase in donor fluorescence.
# [6] = molecular target: T2, NFE2L2 (Homo sapiens, UniProt Q16236); details: read-out: Kd
# T2 construct: made in house
# T2 sequence (Q16236 497-560 limits assumed): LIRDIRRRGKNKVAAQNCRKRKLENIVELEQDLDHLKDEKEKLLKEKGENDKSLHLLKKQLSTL
# Description: as §2
# [7] = molecular target: T3, CREB3 (Homo sapiens, UniProt O43889); details: mean or single, read-out: Kd
# T3 construct: made in house
# T3 sequence (O43889 150-213 limits assumed): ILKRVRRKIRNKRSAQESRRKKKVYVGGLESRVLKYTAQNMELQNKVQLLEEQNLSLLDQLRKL
# Description: as §2
# [8] = molecular target: T4, DBP (Homo sapiens, UniProt Q10586); details: read-out: Kd
# T4 construct: made in house
# T4 sequence (Q10586 255-318 limits assumed): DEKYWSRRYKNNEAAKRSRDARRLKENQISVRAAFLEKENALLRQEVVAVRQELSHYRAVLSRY
# Description: as §2
# [9] = molecular target: T5, JUNB (Homo sapiens, UniProt P17275); details: read-out: Kd
# T5 construct: made in house
# T5 sequence (P17275 268-331 limits assumed): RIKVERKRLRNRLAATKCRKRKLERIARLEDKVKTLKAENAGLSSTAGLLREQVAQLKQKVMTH
# Description: as §2
# [10] = 4°C, N-terminal rhodamine design, mean or single
# [11] = 23°C, N-terminal rhodamine design, mean or single
# [12] = 37°C, C-terminal rhodamine design, repeat 1
# [13] = 37°C, C-terminal rhodamine design, repeat 2
# [14] = 4°C, C-terminal rhodamine design, mean or single
# [15] = 23°C, C-terminal rhodamine design, mean or single
# [16] = 37°C, C-terminal rhodamine design, mean or single
# [17] = 37°C, N-terminal rhodamine design, mean or single
# [18] = 23°C, C-terminal rhodamine design, repeat 1
# [19] = 23°C, C-terminal rhodamine design, repeat 2
# [20] = 4°C, C-terminal rhodamine design
# [21] = 4°C, N-terminal rhodamine design
# [22] = 23°C, C-terminal rhodamine design
# [23] = 23°C, N-terminal rhodamine design
# [24] = 37°C, C-terminal rhodamine design
# [25] = 37°C, N-terminal rhodamine design
# [26] = 23°C, C-terminal fluorescein design as donor, TAMRA target titrated
# [27] = 37°C, C-terminal fluorescein design as donor, TAMRA target titrated
# [28] = 4°C, C-terminal rhodamine design, repeat 1
# [29] = 4°C, C-terminal fluorescein design as donor, TAMRA target titrated
# [30] = 37°C, C-terminal rhodamine design, repeat 3
sequence,measurement,setting,value
KRIAYLRQRIAELRNENHVLESRIQRMEKEKDALQQDRDHLEYEL [ATF5-d1],Kd,[1]; [10],89.6 nM
same,Kd,[1]; [11],753 nM
same,Kd,[1]; [12],> 5000 nM
same,Kd,[1]; [13],> 5000 nM
same,Kd,[2]; [14],> 5000 nM
same,Kd,[2]; [15],> 1000 nM
same,Kd,[2]; [11],> 1000 nM
same,Kd,[2]; [16],> 1000 nM
same,Kd,[2]; [17],> 1000 nM
same,Kd,[3]; [10],> 5000 nM
same,Kd,[3]; [18],> 5000 nM
same,Kd,[3]; [19],> 5000 nM
same,Kd,[3]; [11],> 5000 nM
same,Kd,[3]; [12],> 5000 nM
same,Kd,[3]; [13],> 5000 nM
same,Kd,[4]; [14],119 nM
same,Kd,[4]; [10],> 5000 nM
same,Kd,[4]; [15],> 5000 nM
same,Kd,[4]; [11],> 5000 nM
same,Kd,[4]; [16],> 5000 nM
same,Kd,[4]; [17],> 5000 nM
same,Kd,[5]; [14],> 1000 nM
same,Kd,[5]; [10],> 1000 nM
same,Kd,[5]; [15],> 1000 nM
same,Kd,[5]; [11],> 1000 nM
same,Kd,[5]; [16],> 1000 nM
same,Kd,[5]; [17],> 1000 nM
same,Kd,[6]; [14],> 5000 nM
same,Kd,[6]; [10],> 1000 nM
same,Kd,[6]; [15],> 1000 nM
same,Kd,[6]; [11],> 1000 nM
same,Kd,[6]; [16],> 5000 nM
same,Kd,[6]; [17],> 1000 nM
same,Kd,[7]; [20],147 nM
same,Kd,[7]; [21],> 1000 nM
same,Kd,[7]; [22],> 5000 nM
same,Kd,[7]; [23],> 1000 nM
same,Kd,[7]; [24],200 to 1000 nM
same,Kd,[7]; [25],> 1000 nM
same,Kd,[8]; [14],> 1000 nM
same,Kd,[8]; [10],> 5000 nM
same,Kd,[8]; [15],> 1000 nM
same,Kd,[8]; [11],> 1000 nM
same,Kd,[8]; [16],> 1000 nM
same,Kd,[8]; [17],> 1000 nM
same,Kd,[9]; [14],3620 nM
same,Kd,[9]; [10],> 1000 nM
same,Kd,[9]; [15],> 1000 nM
same,Kd,[9]; [11],> 1000 nM
same,Kd,[9]; [16],> 1000 nM
same,Kd,[9]; [17],> 1000 nM
NQIKTLRTRLSKLRKDNLQLEKDIANLERKAKDLRAEKEQLEYEL [ATF4-d1],Kd,[1]; [10],133 nM
same,Kd,[1]; [26],> 1000 nM
same,Kd,[1]; [18],> 5000 nM
same,Kd,[1]; [11],> 1000 nM
same,Kd,[1]; [27],> 1000 nM
same,Kd,[1]; [12],> 1000 nM
same,Kd,[1]; [17],> 1000 nM
same,Kd,[2]; [28],> 5000 nM
same,Kd,[2]; [10],> 1000 nM
same,Kd,[2]; [18],> 5000 nM
same,Kd,[2]; [11],> 1000 nM
same,Kd,[2]; [12],200 to 1000 nM
same,Kd,[2]; [17],> 1000 nM
same,Kd,[3]; [29],> 1000 nM
same,Kd,[3]; [28],> 5000 nM
same,Kd,[3]; [10],> 1000 nM
same,Kd,[3]; [26],> 1000 nM
same,Kd,[3]; [18],> 5000 nM
same,Kd,[3]; [11],> 1000 nM
same,Kd,[3]; [27],> 1000 nM
same,Kd,[3]; [12],> 5000 nM
same,Kd,[3]; [17],> 1000 nM
same,Kd,[4]; [29],> 1000 nM
same,Kd,[4]; [14],< 200 nM
same,Kd,[4]; [10],> 1000 nM
same,Kd,[4]; [26],> 1000 nM
same,Kd,[4]; [15],< 200 nM
same,Kd,[4]; [11],> 5000 nM
same,Kd,[4]; [27],> 1000 nM
same,Kd,[4]; [16],623 nM
same,Kd,[4]; [17],> 5000 nM
same,Kd,[5]; [29],42.4 nM
same,Kd,[5]; [14],22.8 nM
same,Kd,[5]; [10],> 1000 nM
same,Kd,[5]; [26],> 1000 nM
same,Kd,[5]; [18],> 5000 nM
same,Kd,[5]; [19],> 5000 nM
same,Kd,[5]; [11],> 1000 nM
same,Kd,[5]; [27],> 1000 nM
same,Kd,[5]; [16],> 5000 nM
same,Kd,[5]; [12],> 5000 nM
same,Kd,[5]; [13],> 5000 nM
same,Kd,[5]; [30],> 5000 nM
same,Kd,[5]; [17],> 1000 nM
same,Kd,[6]; [29],> 5000 nM
same,Kd,[6]; [10],47.9 nM
same,Kd,[6]; [26],> 1000 nM
same,Kd,[6]; [15],> 5000 nM
same,Kd,[6]; [18],> 5000 nM
same,Kd,[6]; [19],> 5000 nM
same,Kd,"[6]; 23°C, C-terminal rhodamine design, repeat 3",> 5000 nM
same,Kd,[6]; [11],> 1000 nM
same,Kd,[6]; [27],> 1000 nM
same,Kd,[6]; [12],> 1000 nM
same,Kd,[6]; [13],> 1000 nM
same,Kd,[6]; [30],> 5000 nM
same,Kd,[6]; [17],> 1000 nM
same,Kd,[7]; [20],> 1000 nM
same,Kd,[7]; [21],> 1000 nM
same,Kd,[7]; [22],> 1000 nM
same,Kd,[7]; [23],> 1000 nM
same,Kd,[7]; [24],> 5000 nM
same,Kd,[7]; [25],> 1000 nM
same,Kd,[8]; [14],> 5000 nM
same,Kd,[8]; [10],> 1000 nM
same,Kd,[8]; [26],> 1000 nM
same,Kd,[8]; [15],> 1000 nM
same,Kd,[8]; [11],> 1000 nM
same,Kd,[8]; [27],> 1000 nM
same,Kd,[8]; [16],> 1000 nM
same,Kd,[8]; [17],> 1000 nM
same,Kd,[9]; [29],> 1000 nM
same,Kd,[9]; [14],> 1000 nM
same,Kd,[9]; [10],> 1000 nM
same,Kd,[9]; [26],> 1000 nM
same,Kd,[9]; [15],> 1000 nM
same,Kd,[9]; [11],> 1000 nM
same,Kd,[9]; [27],> 1000 nM
same,Kd,[9]; [16],> 1000 nM
same,Kd,[9]; [17],> 1000 nM
